The values below are quoted from earlier work in patent publication US12521399B2, “Compound as voltage-gated sodium channel inhibitor” (Guangzhou Fermion Technology Co., Ltd., priority 2022, dated 2026).

As usually defined, the pIC50 is the IC50 on a negative log10 scale, so that one unit is a factor of ten.

pIC50: −log10 of the molar value.

Data set [1] has as its target Nav1.3 (Homo sapiens, UniProt Q9NY46). To be noted: read-out: TTX IC50 (nm); cited from earlier work.
Data set [2] deals with Nav1.8 (Homo sapiens, UniProt Q9Y5Y9). The following applies: read-out: TTX IC50 (nm); cited from earlier work.
Chain of Nav1.8 (Q9Y5Y9 whole entry, looked up): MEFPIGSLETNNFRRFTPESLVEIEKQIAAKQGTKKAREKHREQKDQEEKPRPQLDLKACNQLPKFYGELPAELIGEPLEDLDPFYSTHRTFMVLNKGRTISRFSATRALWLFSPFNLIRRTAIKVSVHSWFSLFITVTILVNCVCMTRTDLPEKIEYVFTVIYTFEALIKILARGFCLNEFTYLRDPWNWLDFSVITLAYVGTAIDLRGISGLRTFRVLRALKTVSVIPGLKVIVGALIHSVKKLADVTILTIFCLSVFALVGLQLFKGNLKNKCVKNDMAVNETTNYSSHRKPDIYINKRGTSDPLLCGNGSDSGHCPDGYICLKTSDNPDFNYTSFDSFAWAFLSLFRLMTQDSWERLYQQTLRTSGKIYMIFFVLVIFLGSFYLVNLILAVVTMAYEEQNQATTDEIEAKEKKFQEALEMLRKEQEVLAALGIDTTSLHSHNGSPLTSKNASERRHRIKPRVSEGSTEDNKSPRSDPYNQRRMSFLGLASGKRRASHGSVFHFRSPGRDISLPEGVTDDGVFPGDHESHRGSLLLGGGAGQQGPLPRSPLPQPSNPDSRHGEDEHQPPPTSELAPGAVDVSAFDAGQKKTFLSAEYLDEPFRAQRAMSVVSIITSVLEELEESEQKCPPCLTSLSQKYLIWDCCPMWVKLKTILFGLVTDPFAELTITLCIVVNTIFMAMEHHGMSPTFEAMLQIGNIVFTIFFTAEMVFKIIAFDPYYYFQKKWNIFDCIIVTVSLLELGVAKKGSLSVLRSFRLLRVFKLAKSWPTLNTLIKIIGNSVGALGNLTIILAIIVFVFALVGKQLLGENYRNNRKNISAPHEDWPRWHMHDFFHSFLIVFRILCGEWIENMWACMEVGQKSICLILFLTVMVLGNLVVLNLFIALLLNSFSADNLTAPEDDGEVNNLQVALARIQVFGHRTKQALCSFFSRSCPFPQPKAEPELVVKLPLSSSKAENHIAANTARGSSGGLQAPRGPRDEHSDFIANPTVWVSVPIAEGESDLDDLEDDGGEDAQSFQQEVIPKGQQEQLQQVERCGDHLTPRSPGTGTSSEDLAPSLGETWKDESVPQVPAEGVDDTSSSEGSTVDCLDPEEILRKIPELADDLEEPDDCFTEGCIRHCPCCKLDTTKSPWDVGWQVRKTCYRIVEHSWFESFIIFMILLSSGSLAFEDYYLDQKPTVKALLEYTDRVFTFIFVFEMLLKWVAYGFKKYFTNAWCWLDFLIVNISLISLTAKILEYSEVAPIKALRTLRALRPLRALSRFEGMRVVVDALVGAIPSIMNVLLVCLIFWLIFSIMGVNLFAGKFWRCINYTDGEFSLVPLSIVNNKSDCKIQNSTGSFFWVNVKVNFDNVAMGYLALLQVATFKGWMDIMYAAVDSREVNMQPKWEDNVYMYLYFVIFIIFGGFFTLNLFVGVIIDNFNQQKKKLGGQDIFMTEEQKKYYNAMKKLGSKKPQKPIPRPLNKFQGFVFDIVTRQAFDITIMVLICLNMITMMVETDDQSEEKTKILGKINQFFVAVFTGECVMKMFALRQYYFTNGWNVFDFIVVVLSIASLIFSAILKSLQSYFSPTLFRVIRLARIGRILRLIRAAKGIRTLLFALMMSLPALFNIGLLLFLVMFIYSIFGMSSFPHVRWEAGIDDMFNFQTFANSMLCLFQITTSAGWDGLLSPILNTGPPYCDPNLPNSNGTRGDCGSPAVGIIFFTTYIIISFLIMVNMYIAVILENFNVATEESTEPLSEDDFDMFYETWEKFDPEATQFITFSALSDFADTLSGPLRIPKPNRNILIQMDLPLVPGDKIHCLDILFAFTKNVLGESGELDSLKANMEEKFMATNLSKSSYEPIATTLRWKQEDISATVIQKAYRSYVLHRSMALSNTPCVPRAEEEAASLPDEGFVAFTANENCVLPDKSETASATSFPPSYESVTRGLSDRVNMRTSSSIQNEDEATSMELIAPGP

Chain of Nav1.3 (Q9NY46 whole entry, looked up): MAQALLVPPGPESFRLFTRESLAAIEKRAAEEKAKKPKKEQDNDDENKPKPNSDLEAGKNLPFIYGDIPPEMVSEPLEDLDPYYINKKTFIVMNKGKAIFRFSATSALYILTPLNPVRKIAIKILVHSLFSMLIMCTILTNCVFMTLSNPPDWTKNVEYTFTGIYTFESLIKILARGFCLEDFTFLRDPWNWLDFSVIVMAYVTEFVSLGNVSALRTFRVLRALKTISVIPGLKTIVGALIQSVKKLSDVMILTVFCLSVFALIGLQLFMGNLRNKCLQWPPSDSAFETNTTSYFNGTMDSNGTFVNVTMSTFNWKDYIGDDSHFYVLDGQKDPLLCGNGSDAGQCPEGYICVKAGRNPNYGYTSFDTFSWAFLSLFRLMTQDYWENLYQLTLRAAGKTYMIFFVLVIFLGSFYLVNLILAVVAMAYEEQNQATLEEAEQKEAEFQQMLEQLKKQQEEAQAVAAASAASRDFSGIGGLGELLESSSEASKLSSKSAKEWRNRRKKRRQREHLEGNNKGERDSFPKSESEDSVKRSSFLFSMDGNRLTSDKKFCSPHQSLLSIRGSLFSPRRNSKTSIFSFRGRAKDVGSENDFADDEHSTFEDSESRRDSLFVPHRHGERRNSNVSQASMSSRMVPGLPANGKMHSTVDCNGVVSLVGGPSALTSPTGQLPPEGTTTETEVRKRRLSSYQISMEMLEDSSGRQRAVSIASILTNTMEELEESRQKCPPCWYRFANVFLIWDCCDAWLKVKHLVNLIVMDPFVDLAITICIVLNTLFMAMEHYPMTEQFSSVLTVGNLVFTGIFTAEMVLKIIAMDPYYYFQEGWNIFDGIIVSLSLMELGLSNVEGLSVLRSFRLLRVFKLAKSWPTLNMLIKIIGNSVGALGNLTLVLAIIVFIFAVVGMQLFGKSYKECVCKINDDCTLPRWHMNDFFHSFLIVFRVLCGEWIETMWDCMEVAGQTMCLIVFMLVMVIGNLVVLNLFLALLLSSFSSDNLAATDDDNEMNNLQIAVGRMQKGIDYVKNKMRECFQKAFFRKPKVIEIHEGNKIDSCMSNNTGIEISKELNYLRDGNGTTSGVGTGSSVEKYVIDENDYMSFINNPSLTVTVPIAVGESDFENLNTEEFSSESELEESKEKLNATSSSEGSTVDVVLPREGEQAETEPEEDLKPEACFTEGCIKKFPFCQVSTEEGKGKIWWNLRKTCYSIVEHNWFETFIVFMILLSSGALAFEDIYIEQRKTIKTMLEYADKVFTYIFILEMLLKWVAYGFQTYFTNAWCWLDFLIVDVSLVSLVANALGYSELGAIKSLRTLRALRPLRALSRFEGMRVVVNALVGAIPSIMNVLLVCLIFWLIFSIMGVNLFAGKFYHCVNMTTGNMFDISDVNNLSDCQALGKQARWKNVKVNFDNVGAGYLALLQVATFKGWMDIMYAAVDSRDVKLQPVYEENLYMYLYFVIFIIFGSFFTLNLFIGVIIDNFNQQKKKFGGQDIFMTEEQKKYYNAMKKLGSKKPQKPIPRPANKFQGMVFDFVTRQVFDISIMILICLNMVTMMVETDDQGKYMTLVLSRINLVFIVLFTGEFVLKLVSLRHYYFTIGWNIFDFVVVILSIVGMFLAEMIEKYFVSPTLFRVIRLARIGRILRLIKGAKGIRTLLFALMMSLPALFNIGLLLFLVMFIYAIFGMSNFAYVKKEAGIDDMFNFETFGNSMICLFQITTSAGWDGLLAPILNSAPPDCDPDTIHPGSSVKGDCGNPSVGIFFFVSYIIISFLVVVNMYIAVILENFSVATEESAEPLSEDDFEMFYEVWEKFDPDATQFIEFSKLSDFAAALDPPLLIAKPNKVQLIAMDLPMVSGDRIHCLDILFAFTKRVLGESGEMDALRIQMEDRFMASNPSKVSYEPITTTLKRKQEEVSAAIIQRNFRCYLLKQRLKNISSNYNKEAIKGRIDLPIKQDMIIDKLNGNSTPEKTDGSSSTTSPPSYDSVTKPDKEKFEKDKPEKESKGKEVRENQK

`NC1=N[C@H](O)[C@H]2[C@H]3O[C@]4(O)O[C@@H]([C@@H](O)[C@@]2(N1)[C@@H]4O)[C@]3(O)CO` [TTX, tetrodotoxin]: the pIC50 in data set [1] was 8.40; in data set [2], 4.51.
